Holding throughout (type): cell-based, SARS-CoV-2
The test system of assay [1] is Y453F mutant S-pseudotyped lentivirus.
In assay [2] the test system is N501Y mutant S-pseudotyped lentivirus.
Assay [3] deals with N439K mutant S-pseudotyped lentivirus.

SMILES strings stand for the structures.

With `O=C(O[C@@H]1Cc2c(O)cc(O)cc2O[C@@H]1c1cc(O)c(O)c(O)c1)c1cc(O)c(O)c(O)c1` [EGCG, epigallocatechin gallate], the “inhibition of mutant pseudovirus infection” value in assay [1], in assay [2] and in assay [3] was “effectively inhibited the infection of all mutants” throughout.

The record behind these values is article PMC8364251 (Pharmacological Research, 2021).
